# Active and inactive are the calls of the source. No cut-off for these calls is given here.
# How the values were obtained:
# MDA-MB-468 = experiment: Antiproliferative activity against human MDA-MB-468 cells assessed as inhibition of cell growth; format: functional, cell-based
# CAMA-1 = experiment: Antiproliferative activity against human CAMA-1 cells assessed as inhibition of cell growth; format: functional, cell-based
# MDA-MB-453 [1] = experiment: Antitumor activity against human MDA-MB-453 expressing erbB2 cells xenografted bearing female athymic nu-nu CD-1 mouse assessed as inhibition in tumor growth at 25 mg/kg, po bid administration and measured at 29 day relative to control; format: functional; conditions: MDA-MB-453, 696 h
# [2] = Antitumor activity against human erbB2 transfected FRE cells xenografted bearing female athymic nu-nu CD-1 mouse assessed as reduction in tumor erbB2 receptor phosphorylation, po administration by ELISA method; format: functional, organism-based
# MDA-MB-453 [3] = experiment: Antitumor activity against human MDA-MB-453 high expressing erbB2 cells xenografted bearing female athymic nu-nu CD-1 mouse assessed as inhibition in tumor growth at 100 mg/kg, po bid administrated for 8 to 40 days relative to control; format: functional; conditions: time 8-40 day
# ZR-75-30 = experiment: Antiproliferative activity against human ZR-75-30 cells assessed as inhibition of cell growth; format: functional, cell-based
# MDA-MB-231 = experiment: Antitumor activity against human MDA-MB-231 low expressing erbB2 cells xenografted bearing female athymic nu-nu CD-1 mouse assessed as inhibition in tumor growth at 100 mg/kg, po bid administrated for 14 to 31 days relative to control; format: functional; conditions: time 14-31 day
# [4] = Antiproliferative activity against human EFM-192A cells assessed as inhibition of cell growth; format: functional, cell-based
# [5] = Antitumor activity against human erbB2 transfected FRE cells xenografted bearing female athymic nu-nu CD-1 mouse assessed as apoptotic changes at 100 mg/kg, po administration and measured at 8 hrs by H&E staining method relative to control; format: functional
# LoVo = experiment: Antitumor activity against human LoVo low expressing erbB2 cells xenografted bearing female athymic nu-nu CD-1 mouse assessed as inhibition in tumor growth at 100 mg/kg, po bid administrated for 14 to 31 days relative to control; format: functional; conditions: time 14-31 day
# BT-474 [6] = experiment: Induction of cell cycle arrest in Her2-amplified human BT-474 cells overexpressing erbB2 assessed as increase in G1 phase at 1 micromol/L incubated for 24 hrs by flow cytometry analysis relative to control; format: functional; conditions: dose 1 µmol/L, at 1 µM
# BT-474 [7] = experiment: Antitumor activity against human BT-474 expressing erbB2 cells xenografted bearing female athymic nu-nu CD-1 mouse assessed as decrease in tumor growth at 30 mg/kg, po bid administration and measured at 14 day; format: functional, organism-based
# ZR-75-1 = experiment: Antiproliferative activity against human ZR-75-1 cells assessed as inhibition of cell growth; format: functional, cell-based
# BT-474 [8] = experiment: Antitumor activity against human BT-474 expressing erbB2 cells xenografted bearing female athymic nu-nu CD-1 mouse assessed as inhibition in tumor growth at 30 mg/kg, po bid administration and measured at 40 day relative to control; format: functional; conditions: BT-474, 960 h
# BT-474 [9] = experiment: Antitumor activity against human BT-474 expressing erbB2 cells xenografted bearing female athymic nu-nu CD-1 mouse assessed as reduction in tumor erbB2 receptor phosphorylation at 100 mg/kg, po bid administration and measured at 40 day by ELISA method relative to control; format: functional; design: scale not given: the % may be the effect or the level left
# BT-474 [10] = experiment: Antitumor activity against human BT-474-erbB2 cells xenografted bearing female athymic nu-nu CD-1 mouse assessed as reduction in tumor erbB2 receptor phosphorylation, po administration by ELISA method; format: functional, organism-based
# [11] = Antiproliferative activity against human SUM225CWN cells assessed as inhibition of cell growth; format: functional, cell-based
# [12] = Toxicity in human erbB2 transfected FRE cells xenografted bearing female athymic nu-nu CD-1 mouse assessed as mortality at 50 mg/kg, po QD administrated for 8 to 40 days; format: organism-based; conditions: in vivo, time 8-40 day
# BT-474 [13] = experiment: Antitumor activity against human BT-474 high expressing erbB2 cells xenografted bearing female athymic nu-nu CD-1 mouse assessed as inhibition in tumor growth at 100 mg/kg, po bid administrated for 8 to 40 days relative to control; format: functional; conditions: time 8-40 day
# BT-474 [14] = experiment: Antitumor activity against human BT-474 high expressing erbB2 cells xenografted bearing female athymic nu-nu CD-1 mouse assessed as inhibition in tumor regression at 100 mg/kg, po bid administrated for 8 to 40 days relative to control; format: functional; conditions: time 8-40 day
# FRE [15] = experiment: Antitumor activity against human erbB2 transfected FRE cells xenografted bearing female athymic nu-nu CD-1 mouse assessed as inhibition in tumor volume at 6.25 to 100 mg/kg, po QD administrated for 8 to 40 days; format: functional, organism-based; conditions: dose 6.25-100 mg/kg, time 8-40 day
# BT-20 = experiment: Antiproliferative activity against human BT-20 cells assessed as inhibition of cell growth; format: functional, cell-based
# FRE [16] = experiment: Antitumor activity against human erbB2 transfected FRE cells xenografted bearing female athymic nu-nu CD-1 mouse assessed as tumor erbB2 receptor phosphorylation at 3.125 to 100 mg/kg, po administration by ELISA method; format: functional, organism-based; conditions: dose 3.125-100 mg/kg
# UACC-812 = experiment: Antiproliferative activity against human UACC-812 cells assessed as inhibition of cell growth; format: functional, cell-based
# [17] = Plasma concentration in human erbB2 transfected FRE cells xenografted bearing female athymic nu-nu CD-1 mouse at 25 mg/kg, po measured at 30 mins by liquid chromatography-tandem mass spectrometry analysis; format: ADME, organism-based
# SK-BR-3 = experiment: Inhibition of colony formation in human SK-BR-3 cells overexpressing erbB2 assessed as decrease in colony formation at 3 micromol/L by methanolic crystal violet staining relative to control; format: functional; conditions: dose 3 µmol/L
# FRE [18] = experiment: Antitumor activity against human erbB2 transfected FRE cells xenografted bearing female athymic nu-nu CD-1 mouse assessed as tumor erbB2 receptor phosphorylation at 25 mg/kg, po administration and measured at 4 hrs by ELISA method; format: functional, organism-based
# [19] = Average plasma concentration (0 to 4 hrs) in human erbB2 transfected FRE cells xenografted bearing female athymic nu-nu CD-1 mouse at 50 mg/kg, po QD administrated for 8 to 40 days by liquid chromatography-tandem mass spectrometry analysis; format: ADME, organism-based; conditions: in vivo, time 8-40 day
# BT-474 [20] = experiment: Antiproliferative activity against human BT-474 cells assessed as inhibition of cell growth; format: functional, cell-based
# [21] = Cmax in human erbB2 transfected FRE cells xenografted bearing female athymic nu-nu CD-1 mouse at 50 mg/kg, po QD administrated for 8 to 40 days by liquid chromatography-tandem mass spectrometry analysis; format: ADME, organism-based; conditions: in vivo, time 8-40 day
# BT-474 [22] = experiment: Antitumor activity against human BT-474 expressing erbB2 cells xenografted bearing female athymic nu-nu CD-1 mouse assessed as inhibition in tumor growth at 10 mg/kg, po bid administration and measured at 40 day relative to control; format: functional; conditions: BT-474, 960 h
# [23] = Antiproliferative activity against human SUM190PT cells assessed as inhibition of cell growth; format: functional, cell-based
smiles,measurement,setting,value
COCC(=O)NC/C=C/c1ccc2ncnc(Nc3ccc(Oc4ccc(C)nc4)c(C)c3)c2c1 [CP-724714],IC50,MDA-MB-468,> 10000 nM
same,IC50,CAMA-1,> 10000 nM
same,inhibition in vivo at 25 mg/kg,MDA-MB-453 [1],~19%
same,EC50,[2],1 µg/mL
same,inhibition in vivo at 100 mg/kg,MDA-MB-453 [3],83%
same,IC50,ZR-75-30,1500 nM
same,inhibition in vivo at 100 mg/kg,MDA-MB-231,46%
same,IC50,[4],960 nM
same,Activity,[5],75%
same,inhibition in vivo at 100 mg/kg,LoVo,46%
same,Activity,BT-474 [6],83%
same,Activity,BT-474 [7],Active
same,IC50,ZR-75-1,> 10000 nM
same,inhibition in vivo at 30 mg/kg,BT-474 [8],81%
same,Activity,BT-474 [9],81%
same,EC50,BT-474 [10],0.77 µg/mL
same,IC50,[11],990 nM
same,Activity,[12],Non-Toxic
same,inhibition in vivo at 100 mg/kg,BT-474 [13],83%
same,inhibition in vivo at 100 mg/kg,BT-474 [14],83%
same,inhibition,FRE [15],Active
same,IC50,BT-20,> 10000 nM
same,Activity,FRE [16],Active
same,IC50,UACC-812,1900 nM
same,concentration at 0.5 h,[17],~12500 ng/mL
same,inhibition at 3 µM,SK-BR-3,> 80%
same,Activity,FRE [18],inactive
same,Cave,[19],1300 ng/mL
same,IC50,BT-474 [20],250 nM
same,Cmax,[21],4500 ng/mL
same,inhibition in vivo at 10 mg/kg,BT-474 [22],42%
same,IC50,[23],710 nM

# — ChEMBL document CHEMBL5661975, “Discovery and pharmacologic characterization of CP-724,714, a selective ErbB2 tyrosine kinase inhibitor” (Cancer Res, 2007)
